According to US7910575B2, “Prophylactic or therapeutic agents for allergic ophthalmic diseases or allergic nasal diseases, comprising tricyclic triazolobenzazepine derivative” (Meiji Seika Kaisha, Ltd., priority 2006, dated 2011):
“And” between values parts separate entries of the source, which are not always exact repeats. Identical values can stand only once. Counter-ions that a name gives are not always drawn. Marks after values point to notes of the source that are not given here. Values belong to the compound of their own block, whether it stands above or below them.

How the values were obtained:
[1] = system: allergic rhinitis; experiment: Therapeutic effect on allergic rhinitis (nasal drops one hr after induction); type: in vivo, rat; settings: for Dye leakage amount increase Inhibition ratio: nasal drops, one hr after administration of the antigen
Procedure: In the same manner as in Test Example 4-1, the allergic reaction was induced, and the vascular permeability in the late phase of the allergic rhinitis was measured. In this case, however, for the evaluation of the therapeutic effect, compound A, Amlexanox, and Ketotifen were administered one hr after the induction of the allergic reaction. Since greenie was leaked, the dose was doubled (10 μL) so that the dispersion of the medicament within the nasal cavities is not inhibited, and the concentration of the medicament was regulated with physiological saline to the half of the concentration in the experiment on prophylactic effect to render the dose per individual identical.
The medicament was administered one hr after the administration of the antigen.

[2] = system: allergic rhinitis; experiment: Prophylactic effect on allergic rhinitis (nasal drops immediately before induction); type: in vivo, rat; settings: for Increase in dye leakage amount Inhibition ratio: immediately before antigen administration
Procedure: Male Sprague Dawley rats (n=6) were prepared. Bordetella pertussis (4×10^10) and 1 mg of dinitrophenylated ovalbumin (hereinafter referred to as “DNP-OA”) were subcutaneously administered into the footpad of the rats. […] After six hr from the antigen administration, Evans Blue (a dye) (50 mg/kg) was intravenously administered.
After nine hr from the induction of the allergic reaction, the nasal septal mucosa of the rats was harvested, and the weight of the tissue was measured. The tissue of the nasal septal mucosa was lysed with 1 N KOH, and the leakage amount of the dye was determined as an index of vascular permeability in the late phase of the allergic rhinitis.
In this case, physiological saline was administered instead of the antigen.
In the table, the inhibition ratio was calculated by the following equation. Inhibition(%)=100×{(B−A)−(C−A)}÷(B−A)
wherein A represents a negative control group (a nonsensitized group); B represents a control group; and C represents a medicament administered group.

[3] = system: allergic conjunctivitis; experiment: Therapeutic effect on allergic conjunctivitis (instillation three hr after induction); type: in vivo, rat; settings: for Tissue weight increase: 5 μL/eye three hr after induction of the allergic reaction; for therapeutic effect on allergic conjunctivitis (in words): instillation three hr after induction
Procedure: Compound A, Betamethasone, control group, and negative control group were administered at the same concentration as in Test Example 1-1, and the concentration of Betamethasone was as shown in Table 3. The test was carried out in the same manner as in Test Example 1-1, except that, three hr after the induction of the allergic reaction, for compound A, Betamethasone, control group, and negative control group were administered, the test solution was administered at a dose of 5 μL/eye to the right eye.

[4] = Concentration of compound A in the eye tissue after instillation; type: in vivo, rabbit
Procedure: A test solution (0.1% or 1%) of compound A in an isotonic borate buffer solution adjusted to pH 7.4 and a test solution (0.1%) of compound B in an isotonic borate buffer solution were provided, and 50 μL of each test solution was administered as ocular instillation to male rabbits.
The concentration of compound A in the eye tissue after instillation was measured as follows. At the outset, the tissue was removed from the test animals and was cryopreserved. Purified water (0.1 mL) was added to a sufficient quantity of the cryopreserved tissue and the like followed by homogenization. Thereafter, 0.5 mL of 0.1% phosphoric acid, 0.05 mL of an internal standard solution (a predetermined internal standard substance ([…]) described in WO 95/18130), 0.05 mL of acetonitrile, and 0.05 mL of purified water were added thereto. An extraction solvent (25% chloroform/diethyl ether) (8 mL) was added, and the mixture was shaken and centrifuged. Thereafter, 7 mL of the organic layer was evaporated to dryness under the negative pressure, and the residue was dissolved in 0.3 mL of a mobile phase to give an analyte. A liquid prepared by mixing and dissolving 0.55 g of tetraoxyl ammonium bromide into 450 mL of acetonitrile, 450 mL of 10 mM phosphate buffer solution, and 100 mL of methanol was used as the mobile phase. The concentration of compound A was measured by injecting 0.025 mL of the analyte into high-performance liquid chromatography (HPLC) (measurement conditions: fluorescence excitation 270 nm, emission 466 nm).
The concentration of only compound A in the eye tissue was measured because compound B is a prodrug of compound A.

[5] = system: rabbit eye (conjunctiva); experiment: Severe eye irritation test using rabbits; type: in vivo; settings: instillation six times per day at 30 min intervals for two days
[6] = system: allergic conjunctivitis; experiment: Prophylactic effect on allergic conjunctivitis (instillation before induction, late phase); type: in vivo, rat; settings: for Inhibition ratio Increase in tissue weight: Test Example 1-2, medicament concentration 0.1%, instillation before induction; for Inhibition ratio (%) Increase in tissue weight: 5 μL/eye 15 min before induction; for Inhibition ratio (%) Increase in dye leakage amount: 15 min before induction, Evans Blue
Procedure: Male SD rats were prepared. Bordetella pertussis (4×10^10) and 1 mg of dinitrophenylated ovalbumin (hereinafter often abbreviated to “DNP-OA”) were subcutaneously administered into the footpad of the rats. After 8 to 10 days from the administration, a 3% DNP-OA solution was administered to the right eye of the rats to induce an allergic reaction. In some experiments, in order to confirm dye leakage and location of edema, a dye was injected, and, in the anatomy, the coincidence of dye leakage with the location of edema was confirmed. […] After 9 hr from the induction of the allergic reaction, the eyeballs of the rats were harvested. Further, lenses, hydatoids, and the contents of the vitreous body were removed from the eyeballs, and the weight of the tissues was measured. Furthermore, the dye leakage amount in the harvested eye tissue was measured. […] The absorbance (630 nm) of Evans Blue in the supernatant was measured with Multiskan JX (manufactured by Labsystem Ltd.). The amount of the dye was regarded as a dye leakage amount. […] For the control group, 0.15 M sodium hydrogencarbonate adjusted to pH 7.2 was administered. For a negative control group (a nonsensitization group), a 3% DNP-OA solution was administered to the right eye of the nonsensitized rats, and the solvent was used into the same manner as in the control group. The medicament or the solvent was administered to the right eye (5 μL/eye) 15 min before the induction of the allergic reaction. Compound A was administered at concentrations of 0.01%, 0.1%, and 1% for studies of dose response. In the table, the inhibition ratio was calculated by the following equation.

[7] = system: epithelial cells of cornea in human eyes; experiment: Toxicity against epithelial cells of cornea, 24-hr cell survival rate; type: cell-based
From the text: Specifically, toxicity against epithelial cells of cornea in human eyes was studied.

[8] = system: allergic conjunctivitis; experiment: Prophylactic effect on allergic conjunctivitis (instillation before induction, late phase); type: in vivo, rat
[9] = Test Example 4-2, nasal drops at concentrations of Table 9
[10] = medicament concentration 0.1%, 0.5 μg/rat, 9 hr after induction
[11] = medicament concentration 1%, 5 μg/rat, 9 hr after induction

SMILES: CC(C)c1ccc2oc3nc(N)c(C(=O)O)cc3c(=O)c2c1 [Amlexanox]
Dye leakage amount increase Inhibition ratio ([1]; 0.125%, 25 μg/rat): 25.0%
prophylactic effect on allergic rhinitis (in words) [2, 9]: had prophylactic effect on allergic rhinitis
Increase in dye leakage amount Inhibition ratio ([2]; Test Example 4-2, nasal drops, 0.25%, 25 μg/rat): 81.1% **

SMILES: C[C@H]1C[C@H]2[C@@H]3CCC4=CC(=O)C=C[C@]4(C)[C@@]3(F)[C@@H](O)C[C@]2(C)[C@@]1(O)C(=O)COP(=O)([O-])[O-].[Na+].[Na+] [Betamethazone, betamethazone sodium phosphate, reference compound]
Tissue weight increase ([3]; 0.1%): 74.8% **
therapeutic effect on allergic conjunctivitis (in words) [3]: potent therapeutic effect

maximum eye tissue concentration ([4]; instillation of a 0.1% liquid): 1.29 μg/g and 4.7 μM
concentration at 0.25 h ([4]; male, eye tissue, topical, 50 μL of 1% solution, 1% test solution, 50 μL instillation, rabbit, 0.25 hr after instillation, average ± standard error): 6090 ± 2200 ng/g
concentration at 1 h ([4]; male, eye tissue, topical, 50 μL of 1% solution, 1% test solution, 50 μL instillation, rabbit, 1 hr after instillation): 1150 ± 830 ng/g
concentration at 2 h ([4]; male, eye tissue, topical, 50 μL of 1% solution, 1% test solution, 50 μL instillation, rabbit, 2 hr after instillation): 1260 ± 940 ng/g
concentration at 4 h ([4]; male, eye tissue, topical, 50 μL of 1% solution, 1% test solution, 50 μL instillation, rabbit, 4 hr after instillation): 1380 ± 540 ng/g
concentration at 8 h ([4]; male, eye tissue, topical, 50 μL of 1% solution, 1% test solution, 50 μL instillation, rabbit, 8 hr after instillation): 660 ± 420 ng/g
concentration at 24 h ([4]; male, eye tissue, topical, 50 μL of 1% solution, 1% test solution, 50 μL instillation, rabbit, 24 hr after instillation): 60 ± 60 ng/g
SMILES: COc1cc2[nH]c(=O)c3nn[nH]c3c(=O)c2cc1OC [Compound A, 7,8-Dimethoxy-4(5H),10-dioxo-1H-1,2,3-triazolo[4,5-c][1]benzazepine]
therapeutic effect on allergic rhinitis (in words) ([1]; nasal drops one hr after antigen): exhibited therapeutic effect on the allergic rhinitis
Dye leakage amount increase Inhibition ratio ([1]; 0.05%, 10 μg/rat): 93.8% **
Tissue weight increase ([3]; 0.01%): 70.3% **
Tissue weight increase ([3]; 0.1%): 99.9% **
Tissue weight increase ([3]; 1%): 103.7% **
therapeutic effect on allergic conjunctivitis (in words) [3]: potent therapeutic effect
eye irritation ([5]; 0.5%): irritation was not observed at all
eye irritation ([5]; 3%): only slight reddening of the conjunctiva was observed
prophylactic effect on allergic rhinitis (in words) ([2]; Test Example 4-1, nasal drops 0.01% to 1%): effective against allergic rhinitis dose-dependently
prophylactic effect on allergic rhinitis (in words) [2, 9]: had prophylactic effect on allergic rhinitis
Increase in dye leakage amount Inhibition ratio ([2]; Test Example 4-2, nasal drops, 0.1%, 10 μg/rat): 95.7% **
Increase in dye leakage amount Inhibition ratio ([2]; nasal drops, 0.01%, 1 μg/rat, nasal septal mucosa 9 hr after induction): 52.9% **
Increase in dye leakage amount Inhibition ratio ([2]; nasal drops, 0.1%, 10 μg/rat, 9 hr after induction): 111.7% **
Increase in dye leakage amount Inhibition ratio ([2]; nasal drops, 1%, 100 μg/rat, 9 hr after induction): 123.1% **
Inhibition ratio Increase in tissue weight [6]: 99.1% **
Inhibition ratio (%) Increase in tissue weight ([6]; medicament concentration 0.01%, 0.05 μg/rat, eye harvested 9 hr after induction): 67.0% **
Inhibition ratio (%) Increase in dye leakage amount ([6]; medicament concentration 0.01%, 0.05 μg/rat, 9 hr after induction): 74.4% **
Inhibition ratio (%) Increase in tissue weight [6, 10]: 89.0% **
Inhibition ratio (%) Increase in dye leakage amount [6, 10]: 83.9% **
Inhibition ratio (%) Increase in tissue weight [6, 11]: 83.7% **
Inhibition ratio (%) Increase in dye leakage amount [6, 11]: 87.6% **
non-toxic concentration relative to the maximum eye tissue concentration ([7]; 0.3 mM versus 4.7 μM (0.1% liquid instillation)): not less than 60 times
toxicity against epithelial cells of cornea (24-hr cell survival rate) ([7]; concentration range of 100 nM to 0.3 mM): any toxicity was not observed

SMILES: O=C(O)c1cc(=O)c2c(OCC(O)COc3cccc4oc(C(=O)O)cc(=O)c34)cccc2o1 [Cromoglycate, cromoglycate sodium]
Inhibition ratio Increase in tissue weight ([8]; Test Example 1-2, medicament concentration 2%): 14.7%
Increase in dye leakage amount Inhibition ratio ([2]; Test Example 4-2, nasal drops, 2%, 200 μg/rat): 2.9%

SMILES: CC(=O)[C@@]1(O)CC[C@H]2[C@@H]3C[C@H](C)C4=CC(=O)C=C[C@]4(C)[C@@]3(F)[C@@H](O)C[C@@]21C [Fluorometholone, fluorometholone, reference compound]
Inhibition ratio Increase in tissue weight [6]: 59.4% *

SMILES: CCC(=O)O[C@]1(C(=O)SCF)[C@H](C)C[C@H]2[C@@H]3C[C@H](F)C4=CC(=O)C=C[C@]4(C)[C@@]3(F)[C@@H](O)C[C@@]21C [Fluticasone, fluticasone propinate]
Increase in dye leakage amount Inhibition ratio ([2]; Test Example 4-2, nasal drops, 0.051%, 5.1 μg/rat): 106.0% **

SMILES: CN1CCC(=C2c3ccccc3CC(=O)c3sccc32)CC1 [Ketotifen, ketotifen fumarate]
Inhibition ratio Increase in tissue weight ([8]; Test Example 1-2, medicament concentration 0.05%): 13.4%
Dye leakage amount increase Inhibition ratio ([1]; 0.0275%, 5.5 μg/rat): 48.6%
prophylactic effect on allergic rhinitis (in words) [2, 9]: had prophylactic effect on allergic rhinitis
Increase in dye leakage amount Inhibition ratio ([2]; Test Example 4-2, nasal drops, 0.055%, 5.5 μg/rat): 49.4%

SMILES: C[C@@H]1CN([C@H]2CC[C@](C#N)(c3ccc(F)cc3)CC2)CC[C@]1(C(=O)O)c1ccccc1 [Levocabastine, levocabastine hydrochloride]
Inhibition ratio Increase in tissue weight ([8]; Test Example 1-2, medicament concentration 0.025%): 11.1%
Increase in dye leakage amount Inhibition ratio ([2]; Test Example 4-2, nasal drops, 0.025%, 2.5 μg/rat): 22.7%
